In article doi:10.1101/151233v4 (biorxiv, 2018) one finds EC50 data, which are given here for two compounds.

The term EC50 denotes the concentration giving half of the maximal effect. A low value points to a more potent agent.

The assay concerns the target T1, truncated chicken MR (GAL4-DBD-MR-LBD) (Gallus gallus, UniProt C1KB84).
T1 sequence (C1KB84 729-986): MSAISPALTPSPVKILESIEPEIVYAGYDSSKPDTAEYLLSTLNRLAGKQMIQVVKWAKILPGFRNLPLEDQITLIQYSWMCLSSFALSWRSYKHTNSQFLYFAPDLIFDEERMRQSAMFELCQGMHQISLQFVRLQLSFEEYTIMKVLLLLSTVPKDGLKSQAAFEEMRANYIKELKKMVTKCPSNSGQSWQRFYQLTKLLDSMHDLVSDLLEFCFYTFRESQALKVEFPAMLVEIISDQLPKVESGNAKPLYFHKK
As to the kind of experiment: luciferase reporter transactivation in HEK293, GAL4-DBD fusion. In kind it is cell-based.

The compound `C[C@]12CCC(=O)C=C1CC[C@@H]1[C@@H]2[C@@H](O)C[C@]2(C=O)[C@@H](C(=O)CO)CC[C@@H]12` [aldosterone] had an EC50 of 0.13 nM.
The compound `C[C@]12CCC(=O)C=C1CC[C@@H]1[C@@H]2[C@@H](O)C[C@@]2(C)[C@H]1CC[C@]2(O)C(=O)CO` [cortisol] gave an EC50 of 0.69 nM. Against the preceding compound, the EC50 is about 5.3-fold higher.
